Tested on: 953936-095-R-J2-PDC spheroids with HUVEC/MSC, viability
Test: Anticancer human tumor 953936-095-R-J2-PDC patient-derived cervical squamous cell carcinoma cell line growth inhibition [PI3K]
Conditions: for IC50: curve of first compound; for viability, T/C: stronger effect = lower value
Procedure, shortened: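 Tumor cells were combined with HUVEC and MSCs into spheroids, then dosed with PI3K-inhibitor combinations over half-log ranges capped near clinical Cmax or 10 microM.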

[1] = second compound 0.00316 µM, first compound 0.0316 µM
[2] = second compound 0.00316 µM, first compound 0.1 µM
[3] = second compound 0.00316 µM, first compound 0.316 µM
[4] = second compound 0.00316 µM, first compound 1 µM
[5] = second compound 0.00316 µM, first compound 3.16 µM
[6] = second compound 0.00316 µM, first compound 10 µM
[7] = second compound 0.01 µM, first compound 0.0316 µM
[8] = second compound 0.01 µM, first compound 0.1 µM
[9] = second compound 0.01 µM, first compound 0.316 µM
[10] = second compound 0.01 µM, first compound 1 µM
[11] = second compound 0.01 µM, first compound 3.16 µM
[12] = second compound 0.01 µM, first compound 10 µM
[13] = second compound 0.0316 µM, first compound 0.0316 µM
[14] = second compound 0.0316 µM, first compound 0.1 µM
[15] = second compound 0.0316 µM, first compound 0.316 µM
[16] = second compound 0.0316 µM, first compound 1 µM
[17] = second compound 0.0316 µM, first compound 3.16 µM
[18] = second compound 0.0316 µM, first compound 10 µM
[19] = second compound 0.1 µM, first compound 0.0316 µM
[20] = second compound 0.1 µM, first compound 0.1 µM
[21] = second compound 0.1 µM, first compound 0.316 µM
[22] = second compound 0.1 µM, first compound 1 µM
[23] = second compound 0.1 µM, first compound 3.16 µM
[24] = second compound 0.1 µM, first compound 10 µM
[25] = second compound 0.316 µM, first compound 0.0316 µM
[26] = second compound 0.316 µM, first compound 0.1 µM
[27] = second compound 0.316 µM, first compound 0.316 µM
[28] = second compound 0.316 µM, first compound 1 µM
[29] = second compound 0.316 µM, first compound 3.16 µM
[30] = second compound 0.316 µM, first compound 10 µM
[31] = second compound 1 µM, first compound 0.0316 µM
[32] = second compound 1 µM, first compound 0.1 µM
[33] = second compound 1 µM, first compound 0.316 µM
[34] = second compound 1 µM, first compound 1 µM
[35] = second compound 1 µM, first compound 3.16 µM
[36] = second compound 1 µM, first compound 10 µM
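Also: spheroids exposed to compounds for seven days before read-out.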

Question: For `CCCS(=O)(=O)Nc1ccc(F)c(C(=O)c2c[nH]c3ncc(-c4ccc(Cl)cc4)cc23)c1F` + COc1c(OCCCN2CCOCC2)ccc2c3n(c(=NC(=O)c4cnc(N)nc4)nc12)CCN3, which IC50 (second compound 0.00316 µM) is on record?
Answer: The IC50 was 5.05 µM.

Question: What about the IC50 (second compound 0.01 µM) of the same compound?
Answer: Its IC50 is 4.63 µM.

Question: And the IC50 (second compound 0.0316 µM)?
Answer: Its IC50 is < 0.0316 µM.

Question: And the IC50 (second compound 0.1 µM)?
Answer: Its IC50 is < 0.0316 µM.

Question: What about the IC50 (second compound 0.316 µM) of the same compound?
Answer: Its IC50 is < 0.0316 µM.

Question: What about the IC50 (second compound 1 µM) of the same compound?
Answer: The IC50 was < 0.0316 µM.

Question: What about the viability, T/C [1] of the same compound?
Answer: Its viability, T/C is 81.3%.

Question: What about the viability, T/C [2] of the same compound?
Answer: Its viability, T/C is 94.1%.

Question: And the viability, T/C [3]?
Answer: The viability, T/C was 85.1%.

Question: And the viability, T/C [4]?
Answer: The viability, T/C was 93.1%.

Question: What about the viability, T/C [5] of the same compound?
Answer: The viability, T/C was 83.7%.

Question: And the viability, T/C [6]?
Answer: The viability, T/C was 0.64%.

Question: What about the viability, T/C [7] of the same compound?
Answer: Its viability, T/C is 73.6%.

Question: What about the viability, T/C [8] of the same compound?
Answer: Its viability, T/C is 72.5%.

Question: And the viability, T/C [9]?
Answer: The viability, T/C was 73.8%.

Question: And the viability, T/C [10]?
Answer: The viability, T/C was 78.4%.

Question: What about the viability, T/C [11] of the same compound?
Answer: The viability, T/C was 74.5%.

Question: What about the viability, T/C [12] of the same compound?
Answer: The viability, T/C was 0.66%.

Question: What about the viability, T/C [13] of the same compound?
Answer: Its viability, T/C is 50.7%.

Question: And the viability, T/C [14]?
Answer: The viability, T/C was 46%.

Question: And the viability, T/C [15]?
Answer: Its viability, T/C is 40.8%.

Question: What about the viability, T/C [16] of the same compound?
Answer: Its viability, T/C is 45.7%.

Question: What about the viability, T/C [17] of the same compound?
Answer: Its viability, T/C is 37.6%.

Question: And the viability, T/C [18]?
Answer: Its viability, T/C is 2.52%.

Question: What about the viability, T/C [19] of the same compound?
Answer: The viability, T/C was 18.3%.

Question: What about the viability, T/C [20] of the same compound?
Answer: The viability, T/C was 17.4%.

Question: What about the viability, T/C [21] of the same compound?
Answer: The viability, T/C was 17.1%.

Question: And the viability, T/C [22]?
Answer: Its viability, T/C is 18.9%.

Question: What about the viability, T/C [23] of the same compound?
Answer: Its viability, T/C is 17.3%.

Question: What about the viability, T/C [24] of the same compound?
Answer: Its viability, T/C is 0.92%.

Question: What about the viability, T/C [25] of the same compound?
Answer: The viability, T/C was 7.34%.

Question: And the viability, T/C [26]?
Answer: The viability, T/C was 5.95%.

Question: And the viability, T/C [27]?
Answer: Its viability, T/C is 6.85%.

Question: What about the viability, T/C [28] of the same compound?
Answer: Its viability, T/C is 7.94%.

Question: What about the viability, T/C [29] of the same compound?
Answer: The viability, T/C was 7.74%.

Question: What about the viability, T/C [30] of the same compound?
Answer: The viability, T/C was 1.13%.

Question: And the viability, T/C [31]?
Answer: Its viability, T/C is 1.84%.

Question: What about the viability, T/C [32] of the same compound?
Answer: The viability, T/C was 1.61%.

Question: What about the viability, T/C [33] of the same compound?
Answer: Its viability, T/C is 1.73%.

Question: And the viability, T/C [34]?
Answer: The viability, T/C was 2.48%.

Question: And the viability, T/C [35]?
Answer: The viability, T/C was 2.83%.

Question: What about the viability, T/C [36] of the same compound?
Answer: The viability, T/C was 0.45%.

Question: What does the source list for `CNC(=O)c1ccc(N2C(=S)N(c3ccc(C#N)c(C(F)(F)F)c3)C(=O)C2(C)C)cc1F` + COc1c(OCCCN2CCOCC2)ccc2c3n(c(=NC(=O)c4cnc(N)nc4)nc12)CCN3?
Answer: IC50 (second compound 0.00316 µM): > 10 µM; IC50 (second compound 0.01 µM): > 10 µM; IC50 (second compound 0.0316 µM): < 0.0316 µM; IC50 (second compound 0.1 µM): < 0.0316 µM; IC50 (second compound 0.316 µM): < 0.0316 µM; IC50 (second compound 1 µM): < 0.0316 µM; viability, T/C [1]: 86.8%; viability, T/C [2]: 85%; viability, T/C [3]: 92%; viability, T/C [4]: 89.7%; viability, T/C [5]: 81.6%; viability, T/C [6]: 70%; viability, T/C [7]: 72.6%; viability, T/C [8]: 72.3%; viability, T/C [9]: 76.7%; viability, T/C [10]: 66.6%; viability, T/C [11]: 74.6%; viability, T/C [12]: 63.9%; viability, T/C [13]: 42.1%; viability, T/C [14]: 43%; viability, T/C [15]: 42.3%; viability, T/C [16]: 45.8%; viability, T/C [17]: 41.6%; viability, T/C [18]: 37.3%; viability, T/C [19]: 19.2%; viability, T/C [20]: 18.7%; viability, T/C [21]: 18.4%; viability, T/C [22]: 18%; viability, T/C [23]: 19.6%; viability, T/C [24]: 17.2%; viability, T/C [25]: 6.13%; viability, T/C [26]: 6.8%; viability, T/C [27]: 6.44%; viability, T/C [28]: 6.88%; viability, T/C [29]: 8.06%; viability, T/C [30]: 6.65%; viability, T/C [31]: 1.46%; viability, T/C [32]: 1.67%; viability, T/C [33]: 1.58%; viability, T/C [34]: 1.92%; viability, T/C [35]: 1.61%; viability, T/C [36]: 1.49%

From PubChem BioAssay AID1963971 (Molecular Pharmacology Branch, DTP, NCI, 2024)
